This series deals with CCRIS mutagenicity, Ames/micronucleus/aberration tests. In words: CCRIS mutagenicity studies.
Setting [1] is: Test System: AMES SALMONELLA TYPHIMURIUM, Strain/Indicator: TA100, Metabolic Activation: NONE, Method: STANDARD PLATE.
The mark [2] stands for this setting: Test System: AMES SALMONELLA TYPHIMURIUM, Strain/Indicator: TA98, Metabolic Activation: NONE, Method: STANDARD PLATE.

Active and inactive are the calls of the source. The rule behind the calls is not given here.

As to `COc1cc(O[C@@H]2O[C@H](CO)[C@@H](O)[C@H](O)[C@H]2O)c2c(=O)c3c(O)ccc(O)c3oc2c1`, the mutagenic call by setting is: (Test System: AMES SALMONELLA TYPHIMURIUM, Strain/Indicator: TA97, Metabolic Activation: RAT, LIVER, S-9, PHENOBARBITAL AND 5,6-BENZOFLAVONE, BETA-GLUCOSIDASE, Method: PREINCUBATION) “active; positive”; (Test System: AMES SALMONELLA TYPHIMURIUM, Strain/Indicator: TA98, Metabolic Activation: RAT, LIVER, S-9, PHENOBARBITAL AND 5,6-BENZOFLAVONE, BETA-GLUCOSIDASE, Method: PREINCUBATION) “inactive; negative”; (Test System: AMES SALMONELLA TYPHIMURIUM, Strain/Indicator: TA100, Metabolic Activation: RAT, LIVER, S-9, PHENOBARBITAL AND 5,6-BENZOFLAVONE, BETA-GLUCOSIDASE, Method: PREINCUBATION) “active; positive”; (Test System: AMES SALMONELLA TYPHIMURIUM, Strain/Indicator: TA2637, Metabolic Activation: RAT, LIVER, S-9, PHENOBARBITAL AND 5,6-BENZOFLAVONE, BETA-GLUCOSIDASE, Method: PREINCUBATION) “active; positive”.
Take `Cc1c(C)c2c3c(ccc2c2ccccc12)[C@@H](O)[C@H](O)[C@@H]1O[C@H]31`: the mutagenic call under setting [1] is “active; positive”.
`CC(C)CCCCCCCOC(=O)c1ccccc1C(=O)OCCCCCCCC(C)C`: the mutagenic call runs as follows: (Test System: AMES SALMONELLA TYPHIMURIUM, Strain/Indicator: TA98, Metabolic Activation: HAMSTER, LIVER, S-9, AROCLOR 1254 (10%), Method: PREINCUBATION) “inactive; negative”; (Test System: AMES SALMONELLA TYPHIMURIUM, Strain/Indicator: TA98, Metabolic Activation: NONE, Method: PREINCUBATION) “inactive; negative”; (Test System: AMES SALMONELLA TYPHIMURIUM, Strain/Indicator: TA98, Metabolic Activation: RAT, LIVER, S-9, AROCLOR 1254 (10%), Method: PREINCUBATION) “inactive; negative”; (Test System: AMES SALMONELLA TYPHIMURIUM, Strain/Indicator: TA100, Metabolic Activation: HAMSTER, LIVER, S-9, AROCLOR 1254 (10%), Method: PREINCUBATION) “inactive; negative”; (Test System: AMES SALMONELLA TYPHIMURIUM, Strain/Indicator: TA100, Metabolic Activation: NONE, Method: PREINCUBATION) “inactive; negative”; (Test System: AMES SALMONELLA TYPHIMURIUM, Strain/Indicator: TA100, Metabolic Activation: RAT, LIVER, S-9, AROCLOR 1254 (10%), Method: PREINCUBATION) “inactive; negative”. Further, the mutagenic call runs as follows: (Test System: AMES SALMONELLA TYPHIMURIUM, Strain/Indicator: TA1535, Metabolic Activation: HAMSTER, LIVER, S-9, AROCLOR 1254 (10%), Method: PREINCUBATION) “inactive; negative”; (Test System: AMES SALMONELLA TYPHIMURIUM, Strain/Indicator: TA1535, Metabolic Activation: NONE, Method: PREINCUBATION) “inactive; negative”; (Test System: AMES SALMONELLA TYPHIMURIUM, Strain/Indicator: TA1535, Metabolic Activation: RAT, LIVER, S-9, AROCLOR 1254 (10%), Method: PREINCUBATION) “inactive; negative”; (Test System: AMES SALMONELLA TYPHIMURIUM, Strain/Indicator: TA1537, Metabolic Activation: HAMSTER, LIVER, S-9, AROCLOR 1254 (10%), Method: PREINCUBATION) “inactive; negative”; (Test System: AMES SALMONELLA TYPHIMURIUM, Strain/Indicator: TA1537, Metabolic Activation: NONE, Method: PREINCUBATION) “inactive; negative”; (Test System: AMES SALMONELLA TYPHIMURIUM, Strain/Indicator: TA1537, Metabolic Activation: RAT, LIVER, S-9, AROCLOR 1254 (10%), Method: PREINCUBATION) “inactive; negative”. The mutagenic call reads like this: (Test System: MOUSE LYMPHOMA, Strain/Indicator: L5178Y (TK+/TK-), Metabolic Activation: NONE, Method: SUSPENSION/PLATE) “inactive; negative”; (Test System: MOUSE LYMPHOMA, Strain/Indicator: L5178Y (TK+/TK-), Metabolic Activation: RAT LIVER S-9, Method: SUSPENSION/PLATE) “inactive; negative”.
As for `Cc1ccc(C(=O)n2ncc(Cl)c(Cl)c2=O)cc1`, the mutagenic call under setting [2] was “inactive; negative”; the mutagenic call (Test System: AMES SALMONELLA TYPHIMURIUM, Strain/Indicator: TA98, Metabolic Activation: RAT, LIVER, S-9, AROCLOR 1254, Method: STANDARD PLATE) is “inactive; negative”; the mutagenic call under setting [1] is “inactive; negative”; the mutagenic call (Test System: AMES SALMONELLA TYPHIMURIUM, Strain/Indicator: TA100, Metabolic Activation: RAT, LIVER, S-9, AROCLOR 1254, Method: STANDARD PLATE) is “inactive; negative”; the mutagenic call (Test System: AMES SALMONELLA TYPHIMURIUM, Strain/Indicator: TA1535, Metabolic Activation: NONE, Method: STANDARD PLATE) is “inactive; negative”; the mutagenic call (Test System: AMES SALMONELLA TYPHIMURIUM, Strain/Indicator: TA1535, Metabolic Activation: RAT, LIVER, S-9, AROCLOR 1254, Method: STANDARD PLATE) is “inactive; negative”. In addition, the mutagenic call runs as follows: (Test System: AMES SALMONELLA TYPHIMURIUM, Strain/Indicator: TA1537, Metabolic Activation: NONE, Method: STANDARD PLATE) “inactive; negative”; (Test System: AMES SALMONELLA TYPHIMURIUM, Strain/Indicator: TA1537, Metabolic Activation: RAT, LIVER, S-9, AROCLOR 1254, Method: STANDARD PLATE) “inactive; negative”.
For the molecule `C=C(C)C(=O)OCCOCCOCCOC(=O)C(=C)C`, the mutagenic call is, setting by setting: (Test System: AMES SALMONELLA TYPHIMURIUM, Strain/Indicator: TA97A, Metabolic Activation: NONE, Method: STANDARD PLATE) “inactive; negative”; (Test System: AMES SALMONELLA TYPHIMURIUM, Strain/Indicator: TA97A, Metabolic Activation: RAT, LIVER, S-9, PHENOBARBITAL AND BETA-NAPHTHAFLAVONE, Method: STANDARD PLATE) “inactive; negative”; under setting [2], “inactive; negative”; (Test System: AMES SALMONELLA TYPHIMURIUM, Strain/Indicator: TA98, Metabolic Activation: RAT, LIVER, S-9, PHENOBARBITAL AND BETA-NAPHTHAFLAVONE, Method: STANDARD PLATE) “inactive; negative”; under setting [1], “inactive; negative”; (Test System: AMES SALMONELLA TYPHIMURIUM, Strain/Indicator: TA100, Metabolic Activation: RAT, LIVER, S-9, PHENOBARBITAL AND BETA-NAPHTHAFLAVONE, Method: STANDARD PLATE) “inactive; negative”. In addition, the mutagenic call (Test System: AMES SALMONELLA TYPHIMURIUM, Strain/Indicator: TA102, Metabolic Activation: NONE, Method: STANDARD PLATE) is “inactive; negative”; the mutagenic call (Test System: AMES SALMONELLA TYPHIMURIUM, Strain/Indicator: TA102, Metabolic Activation: RAT, LIVER, S-9, PHENOBARBITAL AND BETA-NAPHTHAFLAVONE, Method: STANDARD PLATE) is “inactive; negative”; the mutagenic call (Test System: CHINESE HAMSTER V-79, Strain/Indicator: V-79 (HPRT)/6-THIOGUANINE, Metabolic Activation: NONE) was “active; positive”; the mutagenic call (Test System: CHINESE HAMSTER V-79, Strain/Indicator: V-79 (HPRT)/6-THIOGUANINE, Metabolic Activation: R, L, S-9, PHENOBARBITAL AND BETA-NAPHTHOFLAVONE) is “inactive; negative”.
As to `Nc1cccc2c1ccc1ccccc12`, the mutagenic call by setting is: (Test System: AMES SALMONELLA TYPHIMURIUM, Strain/Indicator: TA98, Metabolic Activation: RAT, LIVER, S-9, AROCLOR 1254 (2 OR 4%), Method: STANDARD PLATE) “active; positive”; (Test System: AMES SALMONELLA TYPHIMURIUM, Strain/Indicator: TA100, Metabolic Activation: RAT, LIVER, S-9, AROCLOR 1254 (2%), Method: STANDARD PLATE) “active; positive”; (Test System: AMES SALMONELLA TYPHIMURIUM, Strain/Indicator: TA1535, Metabolic Activation: RAT, LIVER, S-9, AROCLOR 1254 (2%), Method: STANDARD PLATE) “inactive; negative”; (Test System: AMES SALMONELLA TYPHIMURIUM, Strain/Indicator: TA1537, Metabolic Activation: RAT, LIVER, S-9, AROCLOR 1254 (2%), Method: STANDARD PLATE) “active; positive”.
In the case of `O=C1NC(=O)C(Cl)(Cl)C1=C(Cl)Cl`, the mutagenic call under setting [1] was “active; positive”.

For the origin of these results see PubChem BioAssay AID1259407 (Chemical Carcinogenesis Research Information System (CCRIS), 2018).
